Measured values published in patent US11518996B2, “Methods and compositions for treating cancer using peptide nucleic acid-based agents” (MEMORIAL SLOAN-KETTERING CANCER CENTER, priority 2013, dated 2022).
Entries after “also recorded” stand apart in the source; their conditions may differ.

What was measured:
[1] = tested on: BRAF V600E mutant protein; assay: Western blot of BRAF V600E mutant protein in OCM1A cells; type: cell-based; settings: 750 nM, over 72 hours
Protocol: (§1) Cells were treated for 24, 48 and 72-hour treatments with 750 nM PNA and lysed in radioimmunoprecipitation assay (RIPA) buffer supplemented with protease inhibitor cocktail tablets (Roche Diagnostics) and 1 mmol/L Na3VO4. Equal amounts of protein were loaded on 4% to 12% PAGE gels (Invitrogen). Polyvinylidene difluoride (PVDF) membranes were blocked with 5% nonfat dried milk and probed with p-MEK, MEK, p-ERK 1/2 (T202/Y204), ERK 1/2, cleaved PARP, α-tubulin (Cell Signaling Technology), BRAF (Santa Cruz Biotechnology), LC3 (Novus Biologicals) and BRAF V600E (Spring Bioscience).
(§2) FIGS. 3A-3C depict BRAF mutant and BRAF wild type protein expression in melanoma cells (C918 and OCM1A) treated with 750 nM of the PNA I-292-3 L2LP NHAc for 24, 48 or 72 hours. FIG. 3A depicts the measurement of mutant and total BRAF protein expression as measured by Western blotting in C918 and OCM1A cells. Tubulin expression was also measured as a loading control. […]
(§3) FIGS. 4A-4C depict BRAF mutant and BRAF wild type protein expression in melanoma cells (C918 and OCM1A) treated with 750 nM of the PNA I-292-9 L2 NHAc for 24, 48 or 72 hours. FIG. 4A depicts the measurement of mutant and total BRAF protein expression as measured by Western blotting in C918 and OCM1A cells. Tubulin expression was also measured as a loading control. […]

[2] = tested on: total BRAF wild type protein; assay: Western blot of total BRAF protein in C918 cells; type: cell-based; settings: 750 nM, over 72 hours
Protocol: as §1, §2, §3

[3] = Toxicity in xenograft mice by weight loss and activity; type: in vivo, Athymic mice; settings: OCM1A xenograft mice, 50 mg/kg doses, 28 day study
Protocol: Toxicity of the tested PNA derivative was evaluated by measuring weight loss of test animals.

BRAF V600E mRNA [4] = assay: qRT-PCR of BRAF V600E mRNA in SK-Mel 7 cells; type: cell-based; settings: 750 nM, 48 hours, RT-PCR, normalized with GAPDH
Protocol: (§4) C918 and OCM1A cells were treated with 750 nM PNA (I-292-3 L2LP) for 48 hours. Mutant BRAF mRNA expression in cells was quantified using RT-PCT. Specifically, cells were treated and then lysed using TRIzol Reagent® (Invitrogen). Reverse transcription of 1 μg of RNA was done using the SuperScript III First-Strand Synthesis System (Invitrogen). Quantitative real-time PCR (qRT-PCR) assays were performed using the 7300 Real Time PCR System (Applied Biosystems). TaqMan gene expression assays, which include gene-specific probe primer sets (Applied Biosystems), were used to detect the indicated genes and glyceraldehyde-3-phosphate dehydrogenase (GAPDH)/hypoxanthine phosphoribosyltransferase (HPRT) mRNA. The relative expression of each gene was calculated by the ΔΔCT method. Cells wild-type for BRAF (C918) as well as mutant cell lines (OCM1A and SK-Mel 7) were treated for 48 hours with 750 nM I-292-3 L2LP NHAc. According to FIG. 5A, BRAF^V600E mRNA expression was quantified using RT-PCR. Relative Quantity (RQ) values were normalized with GAPDH loading control and set relative to the mutant BRAF mRNA expression in untreated OCM1A cells (ND). […] According to FIG. 5B, Both BRAF^V600E and total BRAF mRNA expression in SK-Mel 7 cells were quantified using RT-PCR. RQ values were normalized with GAPDH and set relative to untreated cells. […]

BRAF V600E mRNA [5] = assay: qRT-PCR of BRAF V600E mRNA in OCM1A cells; type: cell-based; settings: 750 nM, 48 hours, RT-PCR, normalized with GAPDH
Protocol: as §4

OCM1A cells = assay: Cell viability assay (CCK8), BRAF V600E mutant uveal melanoma cells; settings: increasing doses, 72 hours
Protocol: (§5) PNA compounds targeting the BRAF V600E gene mutation were tested against melanoma cell lines that are either BRAF wild type (C918) or BRAF V600E mutant (OCM1A and SK-MEL 7). C918 and OCM1A are uveal melanoma cell lines while SK-MEL 7 is a cutaneous melanoma cell line. C918 was kindly provided by Robert Folberg (University of Illinois, Chicago, Ill.). OCM1A was from Dr. William Harbour (Washington University, St. Louis, Mo.). SK-MEL 7 was from Alan Houghton (Memorial Sloan-Kettering Cancer Center, New York, N.Y.). Cells were cultured in RPMI medium supplemented with 10% FBS, 100 units/mL penicillin, and […] streptomycin and maintained at 37° C. in 5% CO2.
(§6) PNA compounds targeting the BRAF V600E gene mutation were tested against melanoma cell lines that are either BRAF wild-type (C918) or BRAF V600E mutant (OCM1A and SK-MEL 7). C918 and OCM1A are uveal melanoma cell lines while SK-MEL 7 is a cutaneous melanoma cell line. […] Cells were treated with increasing doses of several PNA derivatives for 72 hours after which the cell viability was measured and calculated relative to the untreated cells. Cells were plated in 96-well plates and treated in triplicates with the indicated concentrations of PNA derivative. Viability was assessed after 72 hours of treatment using the Cell Counting Kit 8 (CCK8) from Dojindo Molecular Technologies according to the manufacturer's instructions.

OCM1A = assay: Xenograft mouse trial, tumor size; type: in vivo, Athymic mice
Protocol: Athymic mice (3 per group) were inoculated with OCM1A. After 15 days, the size of the developing tumor was sufficient for further measurement and monitoring. The treatment group was given 50 mg/kg dosage of I-292-3 L2LP-NHAc on days 15, 17, 20 and 22. […] Moreover, one week following the last dose, the average tumor size of the treated group began to shrink by 25% over 4 days.

BRAF [6] = assay: BRAF expression by Western blot in OCM1A cells; type: cell-based
Protocol: as §6, §1

SK-MEL 7 cells = assay: Cell viability assay (CCK8), BRAF V600E mutant cutaneous melanoma cells; settings: increasing doses, 72 hours
Protocol: as §5, §6

BRAF [7] = assay: BRAF expression by Western blot in SK MEL 7 cells; type: cell-based
Protocol: as §6, §1

[8] = tested on: total BRAF wild type protein; assay: Western blot of total BRAF protein in OCM1A cells; type: cell-based; settings: 750 nM, over 72 hours
Protocol: as §1, §2, §3

total BRAF mRNA = assay: qRT-PCR of total BRAF mRNA in SK-Mel 7 cells; type: cell-based; settings: 750 nM, 48 hours, RT-PCR, normalized with GAPDH
Protocol: as §4

Compound | BRAF V600E mutant protein expression in OCM1A cells [1] | total BRAF wild type protein in C918 cells [2] | animal weight and activity (toxicity, words) [3] | BRAF V600E mRNA expression in SK-Mel 7 cells (BRAF V600E mRNA [4]) | BRAF V600E mRNA expression in OCM1A cells (BRAF V600E mRNA [5]) | suppression of cell viability in OCM1A cells (OCM1A cells) | tumor volume regression (OCM1A; OCM1A xenograft mice, 50 mg/kg IP doses (FIG. 6A legend)) | average tumor size as percentage of the untreated control group (OCM1A; OCM1A xenograft, 50 mg/kg on days 15, 17, 20 and 22, day 28) | shrinkage of average tumor size of the treated group (OCM1A; OCM1A xenograft, 50 mg/kg, over 4 days, one week following the last dose) | decrease in BRAF expression, OCM1A cells (BRAF [6]) | suppression of cell viability in SK-MEL 7 cells (SK-MEL 7 cells) | decrease in BRAF expression, SK MEL 7 cells (BRAF [7]) | total BRAF wild type protein in OCM1A cells [8] | total BRAF mRNA expression in SK-Mel 7 cells (total BRAF mRNA)
CCCCCCCCCCCCCCCC(=O)NCCCC[C@H](NC(=O)[C@@H](CCCCN)NC(=O)[C@@H](CCCCN)NC(=O)[C@H](NC(=O)[C@@H](CCCCN)NC(=O)[C@@H](CCCNC(=N)N)NC(=O)[C@@H](CCCCN)NC(=O)[C@@H](CCCCN)NC(=O)[C@@H](CCCCN)NC(=O)[C@H]1CCCN1C(=O)[C@@H](CCCCN)NC(=O)CN(CCNC(=O)CN(CCNC(=O)CN(CCNC(=O)CN(CCNC(=O)CN(CCNC(=O)CN(CCNC(=O)CN(CCNC(=O)CN(CCNC(=O)CN(CCNC(=O)CN(CCNC(=O)CN(CCNC(=O)CN(CCNC(=O)CN(CCNC(=O)CN(CCNC(=O)CN(CCNC(=O)CN(CCNC(=O)CN(CCNC(=O)CN(CCNC(=O)[C@@H](CCCCN)NC(=O)[C@@H](CCCCN)NC(=O)[C@H](CCCCNC(=O)CCCCCCCCCCCCCCC)NC(C)=O)C(=O)Cn1ccc(N)nc1=O)C(=O)Cn1ccc(N)nc1=O)C(=O)Cn1cc(C)c(=O)[nH]c1=O)C(=O)Cn1ccc(N)nc1=O)C(=O)Cn1cnc2c(N)ncnc21)C(=O)Cn1cnc2c(N)ncnc21)C(=O)Cn1cnc2c(=O)[nH]c(N)nc21)C(=O)Cn1cnc2c(N)ncnc21)C(=O)Cn1cnc2c(=O)[nH]c(N)nc21)C(=O)Cn1cc(C)c(=O)[nH]c1=O)C(=O)Cn1cnc2c(N)ncnc21)C(=O)Cn1cnc2c(N)ncnc21)C(=O)Cn1cc(C)c(=O)[nH]c1=O)C(=O)Cn1cnc2c(N)ncnc21)C(=O)Cn1cnc2c(N)ncnc21)C(=O)Cn1cc(C)c(=O)[nH]c1=O)C(=O)Cn1cnc2c(N)ncnc21)C(=O)Cn1cc(C)c(=O)[nH]c1=O)C(C)C)C(N)=O [I-292-3 L2LP NHAc, AcNH-Lys(palmitoyl)-dLys-dLys-C CT CAAGAGTAATAATAT-dLys-dPro-dLys-dLys-dLysdArg-dLys-dVal-dLys-dLys-Lys(palmitoyl)-CONH2] | decreased expression | no significant reduction | no weight loss or changes in daily activity | decreased significantly | significantly decreased | significant suppression of cell viability | 50% | 35% | 25% | 40.3% | significant suppression of cell viability | 62.4% | no significant reduction | no observed decrease
AcNH-Lys(palmitoyl)-dLys-dLys-CCTCAAGAGTAATAATAT-dLys-dArg3-dGln-dArg2-dLys2-dArg-Gly-dTyr-dLys-dLys-Lys(palmitoyl)-CONH2 [I-292-9 L2 NHAc] | decreased expression | no significant reduction |  |  |  | significant suppression of cell viability |  |  |  |  | significant suppression of cell viability |  | slight decrease; also recorded: slight reduction | 
